System: Pseudomonas aeruginosa PAM1001
Test: checkerboard assay (broth microdilution): levofloxacin MIC in presence of efflux pump inhibitor
Assay type: cell-based
Procedure: For compounds labeled with the prefix ‘M’, potentiation effect is observed by the reduction of the minimum inhibitory concentration of levofloxacin in the presence of the experimental efflux pump inhibitor. The activity of efflux pump inhibitors (EPI) in combination with fluoroquinolones, such as levofloxacin, is assessed by the checkerboard assay (Antimicrobial Combinations. In Antibiotics in Laboratory Medicine, Ed. Victor Lorian, M.D., Fourth edition, 1996, pp 333-338) using broth microdilution method performed as recommended by the National Committee for Clinical Laboratory Standards (1997). Methods for Dilution of Antimicrobial Susceptibility Tests for Bacteria That Grow Aerobically—Fourth Edition; Approved Standard. NCCLS Document M7-A4, Vol 17 No.2). The test organism used is Pseudomonas aeruginosa PAM1001. […] The compounds tabulated below are representative of the described invention.
In these assays, multiple dilutions of two drugs, namely the EPI and levofloxacin, are being tested, alone and in combination, at concentrations equal to, above and below their respective minimal inhibitory concentrations (MICs). In the case of EPI, most of these compounds are devoid of intrinsic antimicrobial activity and are tested up to the maximum concentration of 40 μg/mL. The MIC of levofloxacin against P. aeruginosa PAM1001 is 4 μg/mL.
The EPI tested are readily soluble in water and stock solutions are prepared at a final concentration of 2 mg/mL. Stock solutions are further diluted, according to the needs of a particular assay, in Mueller Hinton Broth (MHB). Stock solution can be stored at −80° C. Quinolones are solubilized according to the instructions of the manufacturers, at a concentration of 1 mg/mL. They are then further diluted in MHB. Stock solution can be stored at −80° C.
The checkerboard assay is performed in microtiter plates. Levofloxacin is diluted in the x axis, each column containing a single concentration of levofloxacin. The EPI is diluted in the y axis, each row containing an equal concentration of EPI. The result of these manipulations is that each well of the microtiter plate contains a unique combination of concentrations of the two agents. Each EPI are tested independently.
The assay is performed in MHB with a final bacterial inoculum of 5×10^5 CFU/mL (from an early-log phase culture). Microtiter plates are incubated during 20 h at 35° C. and are read using a microtiter plate reader (Molecular Devices) at 650 nm as well as visual observation using a microtiterplate reading mirror.

Row | Molecule | Levofloxacin MIC Against P. aerugiuosa PAM1001 in Presence of Efflux Pump Inhibitor (EPI), Minimum Inhibitory Concentration (EPI Conc. 0 μg/mL) | Levofloxacin MIC Against P. aerugiuosa PAM1001 in Presence of Efflux Pump Inhibitor (EPI), Minimum Inhibitory Concentration (EPI Conc. 0.625 μg/mL) | Levofloxacin MIC Against P. aerugiuosa PAM1001 in Presence of Efflux Pump Inhibitor (EPI), Minimum Inhibitory Concentration (EPI Conc. 1.25 μg/mL) | Levofloxacin MIC Against P. aerugiuosa PAM1001 in Presence of Efflux Pump Inhibitor (EPI), Minimum Inhibitory Concentration (EPI Conc. 2.5 μg/mL) | Levofloxacin MIC Against P. aerugiuosa PAM1001 in Presence of Efflux Pump Inhibitor (EPI), Minimum Inhibitory Concentration (EPI Conc. 5 μg/ mL) | Levofloxacin MIC Against P. aerugiuosa PAM1001 in Presence of Efflux Pump Inhibitor (EPI), Minimum Inhibitory Concentration (EPI Conc. 10 μg/mL) | Levofloxacin MIC Against P. aerugiuosa PAM1001 in Presence of Efflux Pump Inhibitor (EPI), Minimum Inhibitory Concentration (EPI Conc. 20 μg/mL) | Levofloxacin MIC Against P. aerugiuosa PAM1001 in Presence of Efflux Pump Inhibitor (EPI), Minimum Inhibitory Concentration (EPI Conc. 40 μg/mL)
1 | NCC(=O)N[C@H]1CN[C@@H](C(=O)N(CCc2ccccc2)CC(=O)Nc2cnc3ccccc3c2)C1 [Compound M46] | 4 µg/mL | 4 µg/mL | 4 µg/mL | 4 µg/mL | 4 µg/mL | 4 µg/mL | 1 µg/mL | 0.5 µg/mL
2 | CCc1ccc2ncc(NC(=O)[C@@H](Cc3ccc(O)cc3)NC(=O)[C@H]3C[C@H](CN)CN3)cc2c1 [Compound M25, (2R,4R)-4-(Amiomethyl)-N-[(1R)-2-(4-hydroxyphenyl)-1-(6-ethyl-3-quinolylcarbamoyl)ethyl]-2-pyrrolidinecarboxamide] | 4 µg/mL | 4 µg/mL | 4 µg/mL | 4 µg/mL | 4 µg/mL | 0.5 µg/mL | 0.015 µg/mL | 
3 | Cc1ccc2ncc(C(=O)NC[C@H]3C[C@H](CN)CN3)cc2c1 [Compound M72, (2R,4R)-4-(Aminomethyl)-2-(6-methyl-3-quinolylcarboxamidomethyl)pyrrolidine] | 4 µg/mL | 4 µg/mL | 4 µg/mL | 4 µg/mL | 4 µg/mL | 4 µg/mL | 2 µg/mL | 0.5 µg/mL
4 | NCC(=O)N[C@H]1CN[C@H](C(=O)N[C@H](CCc2ccccc2)c2nc3ccccc3o2)C1 [Compound M77, (2S,4R)-4-(2-Aminoacetamido)-N-[(1R)-1-(2-benzoxazolyl)-3-pheylpropyl]-2-pyrrolidinexarboxamide] | 4 µg/mL | 4 µg/mL | 4 µg/mL | 4 µg/mL | 4 µg/mL | 4 µg/mL | 2 µg/mL | 0.125 µg/mL
5 | NC[C@@H]1CN[C@@H](C(=O)NCc2nc3ccc(-c4ccccc4)cc3[nH]2)C1 [Compound M89, (2R,4R)-4-(Aminomethyl)-N-[(5-phenyl-2-benzimidaxolyl)methyl]-2-pyrrolidinecarboxamide] | 4 µg/mL | 4 µg/mL | 4 µg/mL | 4 µg/mL | 2 µg/mL | 2 µg/mL | 0.03 µg/mL | 0.03 µg/mL
6 | Cc1cc2nc(C(O)[C@@H](CCc3ccccc3)NC(=O)[C@@H]3C[C@@H](NC(=O)[C@@H](C)N)CN3)oc2cc1C (mixture of isomers) [Compound M65, (2S,4R)-4-[(2R)-2-Aminopropionamido]-N-[(1R)-1-[(RS)-(5,6-dimethyl-2-benzoxaaolyl)hydroxymethyl]-3-phenylpropyl]-2-pyrrolidinecarboxamide] | 4 µg/mL | 4 µg/mL | 4 µg/mL | 4 µg/mL | 4 µg/mL | 4 µg/mL | 0.06 µg/mL | 0.015 µg/mL
7 | CC(C)(C)c1ccc2ncc(NC(=O)[C@H]3C[C@H](CN)CN3)cc2c1 [Compound M97, (2R,4R)-4-(Aminomethyl)-N-[6-(1,1-dimethyl)ethyl-3-quiolyl]-2-pyrrolidinecarboxamide] | 4 µg/mL | 4 µg/mL | 4 µg/mL | 2 µg/mL | 0.5 µg/mL | 0.125 µg/mL | 0.015 µg/mL | 0.008 µg/mL
8 | (2R,4S)-4-[(2R)-2-Aminopropionamido]-N-(2-phenylethyl)-N-(3-quinolylcarbamoyl)ethyl]-2-pyrrolidinecarboxamide [Compound M42] | 4 µg/mL | 4 µg/mL | 4 µg/mL | 4 µg/mL | 4 µg/mL | 0.50 µg/mL | 0.06 µg/mL | 0.06 µg/mL
9 | NCC(=O)N[C@H]1CN[C@H](C(=O)N[C@@H](CCc2ccccc2)c2nc3ccccc3o2)C1 [Compound M85, (2S,4R)-4-(2-Aminoacetamido)-N-[(1S)-1-(2-benzoxazoiyl)-3-phenylpropyl]-2-pyrrolidinecarboxamide] | 4 µg/mL | 4 µg/mL | 4 µg/mL | 4 µg/mL | 4 µg/mL | 2 µg/mL | 0.50 µg/mL | 0.03 µg/mL

From patent publication US6399629B1, “Efflux pump inhibitors” (priority 1998, dated 2002)
